Source: patent publication US4138485A, “Phenylalanine derivatives” (Kyowa Hakko Kogyo Kabushiki Kaisha, priority 1976, dated 1979)
Like-named read-outs stand apart in the source and are kept apart here.

Key:
[1] = Acute toxicity in rats; conditions: rat, in vivo
Procedure: (§1) (1) Acute toxicity and tonic convulsion in hind paw:
(§2) The acute toxicity and tonic convulsion occured by stimulus by hand touch were determined in the following manner to give the results shown in Table 2.
(b) Acute toxicity in rats:
28 Groups, each consisting of 5 rats (male Wistar strain, weight -- 200 g), were used for the test and control groups. The compounds shown in Table 2 were orally administered to the rats. After one week, the survival ratio was measured.

[2] = tested on: hyperlipemia induced by Triton; assay: Effect on hyperlipemia induced by Triton in rats: activity in the increasing phase; format: in vivo, rats (male Wistar strain); conditions: for activity in the developing phase (in words): Clofibrate, Compounds 1 and 2 compared with each other; for Cholesterol / Cholesterol, Ratio of decrease / Triglyceride / Triglyceride, Ratio of decrease: serum, increasing phase, 200 mg/kg oral, 20 hours
Procedure: (§3) (4) Effect on hyperlipemia induced by Triton in rats:
(i) Activity in the increasing phase:
(§4) 3 Groups, each consisting of 9 rats (male Wistar strain, weight -- 200 to 240 g) fasted for 24 hours were used for this test. Each rat was administered intravenously with 200 mg/kg of Triton (WR-1339), followed by oral administration of 200 mg/kg of the compounds shown in Table 6. After 20 hours from the administration, the blood samples were collected by decapitation. Cholesterol and triglyceride in the serum were determined in a similar manner to that used in (2, ii) to give the results shown in Table 6.

[3] = tested on: hyperlipemia induced by Triton; assay: Cholesterol-lowering activity on hyperlipemia induced by Triton in mice; format: in vivo, mice (male dd-strain); conditions: Mus musculus, read-out: Ratio of the reduction of cholesterol
Procedure: (2) Cholesterol-Lowering activity on hyperlipemia induced by Triton in mice:
38 Groups, each consisting of 9 mice (male dd-strain, weight -- 19 to 21 g), were used for the test and control groups. […] Immediately after the administration and also after 20 hours from the administration of Triton, the mice were orally administered with 100 mg/kg of the compound shown in Table 3. 43 hours after the administration of Triton, the blood samples were collected by decapitation and then the corpuscle was removed by centrifugation. Cholesterol in the serum was determined by Zurkowski's method modified by Shibata (color of the test solution was developed by using sulfoalicyclic acid, acetic acid and sulfuric acid and the optical density of the solution was determined at 620 mμ.

[4] = tested on: hyperlipemia induced by Triton; assay: Effect on hyperlipemia induced by Triton in rats: activity in the decreasing phase; format: in vivo, rats (male Wistar strain); conditions: for Cholesterol / Cholesterol, Ratio of decrease / Triglyceride / Triglyceride, Ratio of decrease: serum, decreasing phase, 200 mg/kg oral 25 hours after Triton, sampled at 30 hours; for activity in the decreasing phase (in words): compared with Clofibrate
Procedure: as §3, §4
(II) Activity in the decreasing phase:
Hyperlipemia occurred by administering Triton (WR-1339) in a similar manner to that in (i). After 25 hours, 200 mg/kg of the compounds were orally administered to the rats. After 30 hours from the injection of Triton, the blood samples were collected by decapitation.

[5] = tested on: cholesterol and triglyceride in the serum; assay: Lipid lowering activity in cynomolgus monkeys; format: in vivo, cynomolgus monkeys (male, born in Malaysia); conditions: 100 mg/kg/day oral, 10 days; for Decrease Ratio of Cholesterol / Decrease Ratio of Triglyceride: average of 3 times cross-over
Procedure: (6) Lipid lowering activity in cynomolgus monkeys:
6 cynomolgus monkeys (male, born in Malaysia, weight -- 2.5 to 3.9 kg) were used for this test. All monkies were breeded in individual cages at a temperature from 23° to 25° C. and fed with a solid diet for monkey (available from Oriental Yeast K.K., Japan) and sweet potatoes every morning and with apples and bananas from time to time. The monkeys were divided into 3 groups, each consisting of 2 monkeys, to orally and compulsively administer the test compound in an amount of 100 mg/kg/day once in every morning for 10 days. At 11 days after the first administration, before feeding the diet in early morning blood samples were collected from the saphenae of the monkeys to determine cholesterol and triglyceride in a similar manner to that described above. The ratio of lowering cholesterol (RCL) or triglyceride (RLT) was calculated by the following formula. [formula] wherein A is the average amount of the cholesterol or triglyceride in the serum before administration, and B is the corresponding amont after administration for 10 days.
After an interval of 5 weeks, another compound was administered to determine cholesterol or triglyceride in a similar manner to that described above. After a further interval of 5 weeks, a similar procedure was repeated by using another compound to determine cholesterol or triglyceride.

[6] = tested on: glycerol induced hyperlipemia; assay: Lipid lowering effects on glycerol induced hyperlipemia in rats; format: in vivo, rats (male Wistar strain); conditions: 0.25% in diet; for Cholesterol / Cholesterol, Ratio of decrease / Triglyceride / Triglyceride, Ratio of decrease: serum, 15% glycerol in water
Procedure: (5) Lipid lowering effects on glycerol induced hyperlipemia in rats: The test was carried out in a similar method to that by […] et al [Life Science, 3, 1021 (1964)] . A group consisting of 10 rats (male Wistar strain, weight - 190 to 210 g) was used for each of the test and control groups. Hyperlipemia occurred by feeding the rats ad libitum with water containing 15% (by volume) of glycerol. […] After this, the blood samples were collected by decapitation and the serum was separated by centrifugation.

[7] = tested on: Cholesterol in the serum; assay: Cholesterol-lowering activity on normal rats of Wistar strain (serum cholesterol, liver weight); format: in vivo, rats (male Wistar strain); conditions: 0.3% in diet; for B - Ratio of decrease of liver weight: continuous administration for 4 days; for C - Ratio of decrease of cholesterol / D - Ratio of increase of liver weight: continuous administration for 14 days
Procedure: (3) Cholesteral-lowering activity on normal rats of Wistar strain:
(i) 22 Groups, each consisting of 5 rats (male Wistar strain, weight -- 150 to 180 g) were used for the test and control groups. After this, the blood samples were collected by decapitation and then the corpuscle was removed by centrifugation. Cholesterol in the serum was determined by Zurkowski's method modified by Shibata and also the liver was excised and weighed. The results are shown in Table 4 wherein the ratio of 100% denotes the amount of chloresterol and the weight of the liver of normal rats fed with powdery diet without the addition of the compound.

[8] = Acute toxicity in mice; conditions: mouse, in vivo
Procedure: as §1, §2
(a) Acute toxicity in mice:
38 Groups, each consisting of 5 mice (male dd-strain, weight -- 18 to 24 g), were used for the test and control groups. The compounds shown in Table 2 were administered orally or intraperitoneally to the mice. After one week, the survival ratio was measured.

[9] = tested on: Triglyceride, phospholipid and free fatty acid in the serum; assay: Determination of triglyceride, phospholipid and free fatty acid in the serum of normal rats; format: in vivo, rats (Wistar strain); conditions: for A - Ratio of decrease of triglyceride / B - Ratio of decrease of phospholipid / C - Ratio of decrease of free fatty acid: continuous administration for 4 days; for lowering activity on lipids other than cholesterol (in words): normal rats, 4 days
Procedure: (ii) Determination of triglyceride, phospholipid and free fatty acid in the serum of normal rats of Wistar strain: Clofibrate and Compounds 1 and 2 were tested in a similar manner to that described in (i). Triglyceride, phospholipid and free fatty acid in the serum were determined in the following manner to give the results shown in Table 5. (a) Determination of triglyceride: Triglyceride was determined by acetylacetone method [Kazuo Matsumiya et al "Rinsho Byori", Vol. 18, page 383 (1970), Japan] in the following manner. Isopropyl alcohol was added to the test solution of the serum to extract triglyceride which was then saponified with potassium hydroxide to give glycerol. The glycerol was oxidized by using sodium salt of methaperiodic acid to convert it into formaldehyde. Color of the test solution was developed by acetylacetone and the optical density at 420 mμ was determined. (b) Determination of phospholipid: "Phospholipid Test Wako", a reagent available from Wako Junyaku K.K., Japan, was used for the determination of phospholipid in the following manner according to a similar manner to that described in "Rinsho Byori", Vol. 17, page 389 (1969), Japan, by Atsuo […] et al. Trichloroacetic acid was added to the serum to give precipitates of lipoprotein which were then added with sulfuric acid and potassium permanganate to form phosphoric acid. Color of the test solution was developed by ammonium molybdate and the optical density was determined at 660 mμ. (c) Determination of free fatty acid: Laurell's method [CLin. Chim. Acta. 16, 57 (1967)] was used for determination in the following manner. […] After shaking for 5 minutes, the solution was centrifuged. 5 Ml of the supernatant was put into another tube and was added with 2 ml of copper reagent. […] The optical density at 550 mμ was determined.

[10] = oral administration, after one week, read-out: Acute Toxicity (LD50), C
[11] = ip, intraperitoneal administration, after one week, read-out: Acute Toxicity (LD50), B
[12] = oral administration, after one week, read-out: Acute Toxicity (LD50), A

| SMILES | activity in the developing phase (in words) [2] | Cholesterol [2] | Cholesterol, Ratio of decrease [2] | Triglyceride [2] | Triglyceride, Ratio of decrease [2] | Cholesterol [4] | Cholesterol, Ratio of decrease [4] | Triglyceride [4] | Triglyceride, Ratio of decrease [4] | cholesterol-lowering activity (in words) [5] | Decrease Ratio of Cholesterol [5] | Decrease Ratio of Triglyceride [5] | activity on lowering triglyceride and cholesterol (in words) [6] | Cholesterol [6] | Cholesterol, Ratio of decrease [6] | Triglyceride [6] | Triglyceride, Ratio of decrease [6] | B - Ratio of decrease of liver weight [7] | C - Ratio of decrease of cholesterol [7] | D - Ratio of increase of liver weight [7] | other results |
| --- | --- | --- | --- | --- | --- | --- | --- | --- | --- | --- | --- | --- | --- | --- | --- | --- | --- | --- | --- | --- | --- |
| CCOC(=O)C(C)(C)Oc1ccc(Cl)cc1 [Clofibrate, reference compound] | substantially equal | 203 mg/dL | 20.8% | 856 mg/dL | 36.0% | 138 mg/dL | 7.5% | 401 mg/dL | -15.6% | have a cholesterol-lowering activity | 6.7% | 9.0% | have an activity on lowering triglyceride and cholesterol | 39.1 mg/dL | 30.6% | 129 mg/dL | 74.0% | 40.1% | 32.3% | 60.1% | LD50 at 168 h ([1]; po): > 200 mg/kg; inhibition in vivo at 100 mg/kg ([3]; 100 mg/kg oral, twice (0 and 20 hours after Triton 600 mg/kg i.v.), serum at 43 hours): 40%; LD50 at 168 h ([8]; ip): 1620 mg/kg; LD50 at 168 h ([8]; po): 2100 mg/kg; A - Ratio of decrease of triglyceride [9]: 50.1%; B - Ratio of decrease of phospholipid [9]: 25.0%; C - Ratio of decrease of free fatty acid [9]: 26.7% |
| Cc1ccc(CSC(=O)N[C@@H](Cc2ccccc2)C(=O)O)cc1 [Compound 1, N-(4-methylbenzylthiocarbonyl)-L-phenylalanine] | substantially equal | 198 mg/dL | 22.7% | 940 mg/dL | 29.7% | 103 mg/dL | 30.7% | 141 mg/dL | 59.4% | have a cholesterol-lowering activity | 12.2% | 10.8% | have an activity on lowering triglyceride and cholesterol | 44.5 mg/dL | 21.0% | 148 mg/dL | 70.0% | 14.8% | 26.1% | 33.1% | LD50 at 168 h [1, 10]: > 200 mg/kg; inhibition in vivo at 100 mg/kg ([3]; po, 43 h): 55%; activity in the decreasing phase (in words) [4]: superior to that of Clofibrate; LD50 at 168 h [8, 11]: > 100 mg/kg; LD50 at 168 h [8, 12]: > 4000 mg/kg; A - Ratio of decrease of triglyceride [9]: 42.0%; B - Ratio of decrease of phospholipid [9]: 13.8%; C - Ratio of decrease of free fatty acid [9]: 27.0%; lowering activity on lipids other than cholesterol (in words) [9]: have a lowering activity on lipids other than cholesterol |
| COC(=O)[C@H](Cc1ccccc1)NC(=O)SCc1ccc(C)cc1 [Compound 2, N-(4-methylbenzylthiocarbonyl)-L-phenylalanine methylester] | substantially equal | 202 mg/dL | 21.3% | 729 mg/dL | 45.5% | 116 mg/dL | 22.2% | 205 mg/dL | 40.9% | have a cholesterol-lowering activity | 9.7% | -7.3% | have an activity on lowering triglyceride and cholesterol | 47.5 mg/dL | 15.7% | 261 mg/dL | 41.3% | 8.2% | 17.5% | 3.9% | LD50 at 168 h [1, 10]: > 900 mg/kg; inhibition in vivo at 100 mg/kg ([3]; po, 43 h): 38%; activity in the decreasing phase (in words) [4]: superior to that of Clofibrate; LD50 at 168 h [8, 11]: > 100 mg/kg; LD50 at 168 h [8, 12]: > 4000 mg/kg; A - Ratio of decrease of triglyceride [9]: 2.1%; B - Ratio of decrease of phospholipid [9]: 10.9%; C - Ratio of decrease of free fatty acid [9]: 21.8%; lowering activity on lipids other than cholesterol (in words) [9]: have a lowering activity on lipids other than cholesterol |
